Article PMC8673480 (Journal of medicinal chemistry, 2021)

Target: SARS-CoV-2 3CLpro (Severe acute respiratory syndrome coronavirus 2, UniProt P0DTD1)
Assay: cell-based

## CCCC1CCC(COC(=O)NC(CC(C)C)C(=O)NC(C=O)CC2CCNC2=O)CC1 [Compound 8b, ((1r,4R)-4-Propylcyclohexyl) methyl ((2S)-4-methyl-1-oxo-1-(((2S)-1-oxo-3-(2-oxopyrrolidin-3-yl)propan-2-yl)amino)pentan-2-yl) carbamate]
  EC50: 1030 ± 490 nM
